“And” between values parts separate entries of the source, which are not always exact repeats. Equal values may be shown once. Where a name gives a salt, the structure may show the parent alone. Read-outs that look alike come from different tables or passages of the source.

Data set [1] deals with rat paw injected with Zymosan. Put plainly: Zymosan-induced mechanical hyperalgesia in rats (Randall-Selitto). It is filed as in vivo. Particulars: os, 0-6 hours, dose increasing pain threshold by 30%. As for the experimental part: (§1) This is a phlogogenic agent, consisting of a protein-glycoside complex, extracted from the cell walls of raw yeast, which is capable of inducing rapid degranulation of neutrophils, an increase in the production of TNF-α, interleukin-1 (IL-1), IL-6 and stimulation of NO generation by monocytes and macrophages (ZymosaN:Merck Index XIII ed. No. 10250, p. 1818).
(§2) The experiments consisted of sub-plantar intradermal injection into the animal of 4 mg of Zymosan suspended in 100 μl of sterile physiological solution, while the test compounds were administered orally 30 minutes before injection of the phlogogenic agent.
(§3) Measurement of the inflammation of the injected paw and of the consequent hyperalgesic effects was performed 2, 4 and 6 hours after the administration of Zymosan. The oedema was evaluated as the increase in volume of the injected paw within the period 0-6 hours, relative to the initial value of the volume of the paw, i.e. before the injection of Zymosan (basal value).
The hyperalgesia induced by the intradermal administration of Zymosan was evaluated on these animals and at the same times described previously for the evaluation of the oedema, using the Randall-Selitto method [Arch. Int. Pharmacodyn. 111, 409 (1957)].
When the animal makes a noise following the pain stimulus, the operator blocks the punch and records the force, expressed in grams, which was applied to the paw (the cut-off value is 500 grams). The difference in the meal chanical pain threshold between the basal value (generally about 230-250 grams) and that recorded at the indicated times after injection of the phlogogenic agent, generally 130-140 g for the control animals 6 hours after injection of the phlogogenic agent, is defined as mechanical hyperalgesia. In this case also, an ED30 was calculated, i.e. the dose in mg/kg capable of increasing the pain threshold by 30% (meal chanical hyperalgesia) in the animals treated with the test compounds relative to the group of control animals.

Data set [2] relates to PGE2. Put plainly: Inhibition of PGE2 formation in rabbit articular chondrocytes stimulated with IL-1β (RIA). It is filed as cell-based. As to conditions: for IC50: Oryctolagus cuniculus, Chondrocyte. As for the experimental part:
(§4) a) The inhibitory activity on the formation of NO measured as NO2^− (nitrite) and PGE2 was studied in vitro on culture media of rabbit articular chondrocytes stimulated with the cytokine IL-1β (1 ng/ml) for 48 hours. For the preparation of the chondrocytes, the method described by Berenbaum et al. [FEBS Letters 340, 51-55 (1994)] was followed. Briefly, fragments of cartilage removed aseptically from the articular heads of rabbit shoulder, hip and knee were finely ground and digested at 37° C. in hyaluronidase, trypsin and collagenase solutions, giving, after filtration through sterile gauze and centrifugation at 600×g and suitable dilution with 10% DMEM-FCS 10%, a concentration per well of about 1×10^5 cells. The cells were maintained under these conditions until confluent (about 15 days), the medium being replaced every 3 days. At this point, the test products dissolved in the medium were added to each sample and, after 20 minutes, 350 μl of IL-1β were added, to give a final concentration of 1 ng/ml. The stimulation lasted 48 hours at 37° C. (incubation in air/7% CO2). A nitrite assay was subsequently performed on the cell supernatant, as described by Green et al. [Anal. Biochem. 126, 131-138 (1982)], and of PGE2 by RIA assay. The results obtained are shown in Table 3, in which is given, for a number of the compounds that are the subject of the invention and that are already illustrated in Table 1, the IC50, i.e. the concentration (micromolar) of antagonist capable of inhibiting the formation of nitrites and PGE2 by 50% relative to the control group, i.e. relative to the cells stimulated with IL-1β but without addition of antagonists.

In data set [3] the test system is formation of NO measured as NO2^− (nitrite). In words: Inhibition of NO (nitrite) formation in rabbit articular chondrocytes stimulated with IL-1β. It counts as cell-based. As for the experimental part: as §4
Data set [4] deals with rat paw injected with Zymosan. Put plainly: Zymosan-induced paw oedema in rats. It counts as in vivo. Particulars: for Anti-inflammatory activity (oedema) ED30 / Mean (Oedema + Analgesia) ED30: os, 0-6 hours; for Anti-inflammatory activity (oedema) ED30: dose reducing volume increase by 30%; for Mean (Oedema + Analgesia) ED30: mean of oedema and analgesia ED30; for anti-inflammatory and anti-hyperalgesic action (in words): Zymosan, administered orally, L-NAME up to maximum dose 50 mg/kg. As for the experimental part: as §1, §2, §3
The measurements of the variation of the volume of the paw were recorded using a hydroplethysmometer (Mod. 7150, Basile, Italy), which consists of two plastic cuvettes containing a surfactant liquid, the larger one being used for immersion of the paw, connected to the smaller one which contains a transducer capable of recording small displacements of volume of the liquid used for the measurement. The paw is immersed in the cuvettes up to the tibiotarsal joint. The volume of liquid displaced by the paw indicates the magnitude of the inflammation.
For each test compound, at least three doses were used (generally 10, 20 and 40 mg/kg) with at least five animals per group×dose, so as to be able to calculate an ED30, i.e. the dose in mg/kg capable of reducing by 30% the Zymosan-induced volume increase, relative to the group of control animals, i.e. animals injected only with the phlogogenic agent and treated orally with distilled water.

Data set [5] concerns IL-6. In words: Inhibition of IL-6 expression (mRNA) in SW 1353 cells stimulated with IL-1β, Real Time PCR. It counts as cell-based. Particulars: Homo sapiens, SW1353; SW 1353 cells stimulated for 6 hours with IL-1β. From the text: In practice, the RNA extracted from the cells was back-transcribed to c-DNA by means of a thermocycler (BioRad—“iCycler”) and subsequently amplified via the Real Time PCR technique using a probe and a primer specific for IL-6, from the company Applied Biosystem, and the thermocycler 7000 Sequence Detection System (Applied Biosystem).
The capacity […] may be considered as large, since the increase in the expression of this cytokine is associated with the physiopathology of various human diseases, for instance Crohn's disease, as described previously.
A general note: Real-time PCR tracks product formation cycle by cycle.

Where [6] appears, read: rabbit articular chondrocytes, IL-1β 1 ng/ml, 48 hours, RIA, read-out: Inhibition % IC50 PGE2.
The mark [7] stands for this setting: rabbit articular chondrocytes stimulated with IL-1β.
The mark [8] stands for this setting: Oryctolagus cuniculus, Chondrocyte, rabbit articular chondrocytes stimulated with IL-1β, read-out: IC50, production of NO.
Setting [9] is: Oryctolagus cuniculus, Chondrocyte, rabbit articular chondrocytes, IL-1β 1 ng/ml, 48 hours, nitrite in supernatant, read-out: Inhibition % IC50 NO.
Where [10] appears, read: rabbit articular chondrocytes stimulated with IL-1β, read-out: IC50, formation of PGE2.

`Cc1ccc(-c2cc(C(F)(F)F)nn2-c2ccc(S(N)(=O)=O)cc2)cc1` [Celecoxib, reference compound]: in data set [1], the “Analgesic activity (mechanical anti-hyperalgesia) ED30” value (from here on “Analgesic activity”) is listed as 69.2 mg/kg. Moreover, the IC50 – broadly, the midpoint of a concentration-inhibition curve – in data set [2] (setting [6]) amounted to 0.02 µM. In addition, in data set [3] (setting [7]), the “inhibiting the production of NO (in words)” value is “entirely inactive”. Also, in data set [4], the “Anti-inflammatory activity (oedema) ED30” value is reported as 79.4 mg/kg and the “Mean (Oedema + Analgesia) ED30” value is reported as 74.3 mg/kg.
As for `CC(=N)Nc1ccc2nc(-c3ccccc3)sc2c1` [Compound 1, N-(2-phenylbenzothiazol-6-yl)acetamidine], the melting point – broadly, the temperature of the solid-liquid transition – fell in the range of 161 to 162.1 °C. In addition, in data set [1], the “Analgesic activity” value is listed as 6.7 mg/kg. Moreover, the IC50 in data set [2] (setting [6]) is 2.4 µM. In addition, the IC50 in data set [3] (setting [8]) lay within 3 to 8 µM. For the same compound, in data set [3] (setting [9]), the IC50 is 6.5 µM. In addition, in data set [4], the “anti-inflammatory and anti-hyperalgesic action (in words)” value is “powerful anti-inflammatory and anti-hyperalgesic action”; the “Anti-inflammatory activity (oedema) ED30” value was 12.6 mg/kg; the “Mean (Oedema + Analgesia) ED30” value is given as 9.7 mg/kg.
In the case of `CC(=N)Nc1ccc2[nH]c(-c3ccccc3)cc2c1` [Compound 5, N-(2-phenyl-1H-indol-5-yl)acetamidine], the melting point is 217.7 to 220 °C and 218 to 220 °C. The “Analgesic activity” value in data set [1] is 19.3 mg/kg. Moreover, the concentration for half-maximal inhibition (IC50) in data set [2] (setting [6]) is 1.2 µM. The same compound yielded an IC50 in data set [5] of 1.5 to 6 µM. In addition, the IC50 in data set [3] (setting [8]) was 3 to 8 µM. Besides, the IC50 in data set [3] (setting [9]) came to 3.4 µM. In data set [4], the “anti-inflammatory and anti-hyperalgesic action (in words)” value is “powerful anti-inflammatory and anti-hyperalgesic action”; the “Anti-inflammatory activity (oedema) ED30” value is 39.4 mg/kg; the “Mean (Oedema + Analgesia) ED30” value was determined as 29.4 mg/kg.
With `CC(=N)Nc1ccc2sc(-c3ccccc3C)nc2c1` [Compound 18, N-[2-(2-methylphenyl)benzothiazol-5-yl]acetamidine], the melting point fell in the range of 188.4 to 189.8 °C. The IC50 in data set [2] (setting [6]) stood at 1.2 µM. In data set [5], this compound registered an IC50 of 1.5 to 6 µM. Also, the IC50 in data set [3] (setting [8]) fell in the range of 3 to 8 µM. For the same compound, in data set [3] (setting [9]), the IC50 is 6.2 µM.
On to `CC(=N)Nc1ccc2nc(-c3ccccc3)ncc2c1` [Compound 27, N-(2-phenylquinazolin-6-yl)acetamidine dihydrochloride], for which, in data set [1], the “Analgesic activity” value is recorded as 13.0 mg/kg. Moreover, the IC50 in data set [2] (setting [6]) was 9 µM. The IC50 in data set [5] was 1.5 to 6 µM. Further, the IC50 in data set [3] (setting [9]) stood at 67.5 µM. Further, in data set [4], the “anti-inflammatory and anti-hyperalgesic action (in words)” value is “powerful anti-inflammatory and anti-hyperalgesic action”; the “Anti-inflammatory activity (oedema) ED30” value came to 24.6 mg/kg; the “Mean (Oedema + Analgesia) ED30” value is listed as 18.8 mg/kg.
Regarding `CC(=N)Nc1ccc2oc(-c3ccccc3)nc2c1` [Compound 29, N-(2-phenylbenzoxazol-5-yl)acetamidine], the melting point fell in the range of 171.2 to 173.4 °C. For the same compound, the IC50 in data set [2] (setting [6]) was found to be 3.2 µM. Moreover, in data set [5], the IC50 lay in the range of 1.5 to 6 µM. The IC50 in data set [3] (setting [9]) was 28.6 µM.
Compound `CC(=N)Nc1ccc2oc(-c3ccc(C(F)(F)F)cc3)nc2c1` [Compound 32, N-[2-(4-trifluromethylphenyl)benzoxazol-5-yl]acetamidine] came in with a melting point of 179.2 to 181 °C. For the same compound, in data set [2] (setting [6]), the IC50 is 0.6 µM. Besides, the 50% inhibitory concentration (IC50) in data set [3] (setting [9]) was determined as 8.1 µM.
Taken in the same sequence, the figures for `CC(=N)Nc1ccc2oc(-c3ccccc3F)nc2c1` [Compound 33, N-[2-(2-fluorophenyl)benzoxazol-5-yl]acetamidine] were 157.9 to 159.2 °C, 13.8 µM and 47 µM.
In turn, `CC(=N)Nc1ccc2oc(-c3ccc(Cl)c(Cl)c3)nc2c1` [Compound 34, N-[2-(3,4-dichlorophenyl)benzoxazol-5-yl]acetamidine] yielded a melting point of 182 to 184 °C. Moreover, the IC50 in data set [2] (setting [10]) lay within 0.3 to 0.8 µM. Besides, in data set [2] (setting [6]), the IC50 is 0.4 µM. The IC50 in data set [3] (setting [8]) lay within 3 to 8 µM. Also, the IC50 in data set [3] (setting [9]) worked out at 4.3 µM.
With `CC(=N)Nc1ccc2[nH]c(-c3ccc(Cl)c(Cl)c3)nc2c1` [Compound 35, N-[2-(3,4-dichlorophenyl)benzimidazol-5-yl]acetamidine], the melting point fell in the range of 207.4 to 209 °C. For the same compound, the IC50 in data set [2] (setting [10]) lay within 0.3 to 0.8 µM. Moreover, in data set [2] (setting [6]), the IC50 was 0.4 µM. The “IC50, formation of PGE2” value in data set [2] (setting [7]) is on record as “sub-micromolar”. The “inhibiting the production of NO (in words)” value in data set [3] (setting [7]) is reported as “little activity”.
Compound `COc1ccccc1-c1nc2cc(NC(C)=N)ccc2[nH]1` [Compound 37] displayed a melting point of 190.5 to 192.8 °C. Further, the IC50 in data set [2] (setting [6]) amounted to 2.8 µM. The IC50 in data set [3] (setting [9]) is 32.1 µM.
Compound `CC(=N)Nc1ccc2[nH]c(-c3ccccc3C)nc2c1` [Compound 39, N-[2-(2-methylphenyl)benzimidazol-5-yl]acetamidine] showed a melting point of 154 to 158 °C. Moreover, in data set [2] (setting [6]), the IC50 turned out to be 9.9 µM. Moreover, the IC50 in data set [3] (setting [9]) stood at 199 µM.
In the same order, the values of `CC(=N)Nc1ccc2nc(-c3ccccc3)oc2c1` [Compound 42, N-(2-phenylbenzoxazol-6-yl)acetamidine] are 176.3 to 177.8 °C, 5.1 µM and 42.9 µM.
`COC(=O)[C@@H](N)CCCNC(=N)N[N+](=O)[O-]` [L-NAME, N^G-nitro-L-arginine methyl ester, reference compound]: in data set [1], the “Analgesic activity” value is “IN (the compound L-NAME was entirely inactive up to the maximum dose administered (50 mg/kg))”. Also, the “Inhibition % IC50 PGE2” value in data set [2] (rabbit articular chondrocytes, IL-1β 1 ng/ml, 48 hours, RIA) is recorded as “IN (IN = <25% inhibitory activity at 30 × 10^−6M)”. Also, the “activity on NO production, fold less powerful than the best compounds of the invention” value in data set [3] (setting [7]) is on record as “about 10 fold”. For the same compound, in data set [3] (rabbit articular chondrocytes stimulated with IL-1β, read-out: IC50, production of NO), the IC50 stood at 71 µM. In addition, the “anti-inflammatory and anti-hyperalgesic action (in words)” value in data set [4] (50 mg/kg) was “inactive”. Besides, in data set [4], the “Anti-inflammatory activity (oedema) ED30” value is “IN (the compound L-NAME was entirely inactive up to the maximum dose administered (50 mg/kg))” and the “Mean (Oedema + Analgesia) ED30” value is “IN (the compound L-NAME was entirely inactive up to the maximum dose administered (50 mg/kg))”.

The values are drawn from patent publication US20050197331A1, “Novel anti-inflammatory and analgesic heterocyclic amidines that inhibit nitrogen oxide (NO) production” (ROTTAPHARM SPA, priority 2004, published 2005).
